The results in this text go back to patent publication US10004701B2, “Methods and compositions for treating infection” (UNIVERSITY OF ROCHESTER, priority 2012, dated 2018).

Where a name gives a salt, the structure may show the parent alone. Read-outs that look alike come from different tables or passages of the source.

Holding throughout (assay): AK assay 384-well format, Prestwick library screening
Assay [1] has as its system E. faecium. The class given is cell-based, Enterococcus faecium. As to conditions: 50 μM final drug concentration; for fold induction at 50 µM: Enterococcus faecium, 3 h.
Assay [2] relates to S. aureus strain USA300-0114. The class given is cell-based, Staphylococcus aureus. Conditions: 50 μM final drug concentration; for fold induction at 50 µM: Staphylococcus aureus, USA300, 3 h.
The subject of assay [3] is K. pneumoniae. The class given is cell-based, Klebsiella pneumoniae. Conditions: 50 μM final drug concentration; for fold induction at 50 µM: Klebsiella pneumoniae, 3 h.
Assay [4] concerns A. baumannii strain 98-37-09. The class given is cell-based, Acinetobacter baumannii. Conditions: 50 μM final drug concentration; for fold induction at 50 µM: Acinetobacter baumannii, 983709, 3 h.
In assay [5] the test system is P. aeruginosa. The class given is cell-based, Pseudomonas aeruginosa. Conditions: 50 μM final drug concentration; for fold induction at 50 µM: Pseudomonas aeruginosa, 3 h.
The test system of assay [6] is E. cloacae. The class given is cell-based, Enterobacter cloacae. As to conditions: 50 μM final drug concentration; for fold induction at 50 µM: Enterobacter cloacae, 3 h.
Assay [7] deals with E. coli. The class given is cell-based, Escherichia coli. As to conditions: 50 μM final drug concentration; for fold induction at 50 µM: Escherichia coli, 3 h.
The mark [8] stands for this setting: planktonic E. faecium, positive cutoff 3-fold increase, read-out: AK-based Prestwick library screening result, E. faecium (fold increase in extracellular AK activity).
The mark [9] stands for this setting: planktonic S. aureus, positive cutoff 3-fold increase, read-out: AK-based Prestwick library screening result, S. aureus (fold increase in extracellular AK activity).
The mark [10] stands for this setting: planktonic K. pneumoniae, positive cutoff 3-fold increase, read-out: AK-based Prestwick library screening result, K. pneumoniae (fold increase in extracellular AK activity).
Where [11] appears, read: planktonic A. baumannii, positive cutoff 3-fold increase, read-out: AK-based Prestwick library screening result, A. baumannii (fold increase in extracellular AK activity).
Setting [12] is: planktonic P. aeruginosa, positive cutoff 3-fold increase, read-out: AK-based Prestwick library screening result, P. aeruginosa (fold increase in extracellular AK activity).
Where [13] appears, read: planktonic E. cloacae, positive cutoff 3-fold increase, read-out: AK-based Prestwick library screening result, E. cloacae (fold increase in extracellular AK activity).
Setting [14] is: planktonic E. coli, positive cutoff 3-fold increase, read-out: AK-based Prestwick library screening result, E. coli (fold increase in extracellular AK activity).

On to `CC(C(=O)O)c1ccc(C(=O)c2ccccc2)s1` (centres unmarked) [Tiaprofenic acid], for which the fold induction at 50 µM in assay [1] (planktonic E. faecium, cutoff for positive-scoring molecules 3-fold increase, read-out: AK-based Prestwick Library Screening Results, E. faecium (increase in extracellular AK activity)) amounted to 0.8; in assay [2] (planktonic S. aureus, cutoff for positive-scoring molecules 3-fold increase, read-out: AK-based Prestwick Library Screening Results, S. aureus (increase in extracellular AK activity)) it was 0.5; in assay [3] (planktonic K. pneumoniae, cutoff for positive-scoring molecules 3-fold increase, read-out: AK-based Prestwick Library Screening Results, K. pneumoniae (increase in extracellular AK activity)) it was 0.5; in assay [4] (planktonic A. baumannii, cutoff for positive-scoring molecules 3-fold increase, read-out: AK-based Prestwick Library Screening Results, A. baumannii (increase in extracellular AK activity)), 0.7; in assay [5] (planktonic P. aeruginosa, cutoff for positive-scoring molecules 3-fold increase, read-out: AK-based Prestwick Library Screening Results, P. aeruginosa (increase in extracellular AK activity)), 0.6; in assay [6] (planktonic E. cloacae, cutoff for positive-scoring molecules 3-fold increase, read-out: AK-based Prestwick Library Screening Results, E. cloacae (increase in extracellular AK activity)), 0.8. The fold induction at 50 µM in assay [7] (planktonic E. coli, cutoff for positive-scoring molecules 3-fold increase, read-out: AK-based Prestwick Library Screening Results, E. coli (increase in extracellular AK activity)) amounted to 0.6.

For the compound `CC1(C)S[C@@H]2[C@H](NC(=O)[C@H](C(=O)O)c3ccsc3)C(=O)N2[C@H]1C(=O)O` [Ticarcillin sodium], the fold induction at 50 µM is 1.2 in assay [1] (setting [8]); 0.7 in assay [2] (setting [9]); 0.7 in assay [3] (setting [10]); 2.6 in assay [4] (setting [11]); 0.8 in assay [5] (setting [12]); 1.4 in assay [6] (setting [13]). Moreover, the fold induction at 50 µM in assay [7] (setting [14]) was determined as 12.8.

In the case of `CCNC1(c2cccs2)CCCCC1=O.Cl` (centres unmarked) [Tiletamine hydrochloride], in assay [1] (planktonic E. faecium, […]), the “AK-based Prestwick library screening result, E. faecium (fold increase in extracellular AK activity)” value amounted to 1.0. In addition, in assay [2] (planktonic S. aureus, […]), the “AK-based Prestwick library screening result, S. aureus (fold increase in extracellular AK activity)” value is 1.1. The “AK-based Prestwick library screening result, K. pneumoniae (fold increase in extracellular AK activity)” value in assay [3] (planktonic K. pneumoniae, […]) came out at 1.1. Also, in assay [4] (planktonic A. baumannii, […]), the “AK-based Prestwick library screening result, A. baumannii (fold increase in extracellular AK activity)” value amounted to 1.6. Further, the “AK-based Prestwick library screening result, P. aeruginosa (fold increase in extracellular AK activity)” value in assay [5] (planktonic P. aeruginosa, […]) came to 1.1. Also, the “AK-based Prestwick library screening result, E. cloacae (fold increase in extracellular AK activity)” value in assay [6] (planktonic E. cloacae, […]) was found to be 1.4. Moreover, in assay [7] (planktonic E. coli, […]), the “AK-based Prestwick library screening result, E. coli (fold increase in extracellular AK activity)” value was 1.2.

For the compound `CCS(=O)(=O)CCn1c([N+](=O)[O-])cnc1C` [Tinidazole], the fold induction at 50 µM in assay [1] (planktonic, cutoff for positive-scoring molecules 3-fold increase, read-out: AK-based Prestwick Library Screening Results, E. faecium (fold increase in extracellular AK activity)) was 0.9; in assay [2] (planktonic, cutoff for positive-scoring molecules 3-fold increase, read-out: AK-based Prestwick Library Screening Results, S. aureus (fold increase in extracellular AK activity)), 1.2; in assay [3] (planktonic, cutoff for positive-scoring molecules 3-fold increase, read-out: AK-based Prestwick Library Screening Results, K. pneumoniae (fold increase in extracellular AK activity)) it was 0.8; in assay [4] (planktonic, cutoff for positive-scoring molecules 3-fold increase, read-out: AK-based Prestwick Library Screening Results, A. baumannii (fold increase in extracellular AK activity)) it was 1; in assay [5] (planktonic, cutoff for positive-scoring molecules 3-fold increase, read-out: AK-based Prestwick Library Screening Results, P. aeruginosa (fold increase in extracellular AK activity)), 1.1; in assay [6] (planktonic, cutoff for positive-scoring molecules 3-fold increase, read-out: AK-based Prestwick Library Screening Results, E. cloacae (fold increase in extracellular AK activity)), 1.5. For the same compound, in assay [7] (planktonic, cutoff for positive-scoring molecules 3-fold increase, read-out: AK-based Prestwick Library Screening Results, E. coli (fold increase in extracellular AK activity)), the fold induction at 50 µM was determined as 1.2.

As for `NC[C@H]1O[C@H](O[C@H]2[C@H](O)[C@@H](O[C@H]3O[C@H](CO)[C@@H](O)[C@H](N)[C@H]3O)[C@H](N)C[C@@H]2N)[C@H](N)C[C@@H]1O` [Tobramycin], the fold induction at 50 µM in assay [1] (planktonic, cutoff for positive 3-fold increase, read-out: AK-based Prestwick Library Screening Results, E. faecium (fold increase in extracellular AK activity)) is 0.9; in assay [2] (planktonic, cutoff for positive 3-fold increase, read-out: AK-based Prestwick Library Screening Results, S. aureus (fold increase in extracellular AK activity)), 1.1; in assay [3] (planktonic, cutoff for positive 3-fold increase, read-out: AK-based Prestwick Library Screening Results, K. pneumoniae (fold increase in extracellular AK activity)), 2; in assay [4] (planktonic, cutoff for positive 3-fold increase, read-out: AK-based Prestwick Library Screening Results, A. baumannii (fold increase in extracellular AK activity)), 5.7; in assay [5] (planktonic, cutoff for positive 3-fold increase, read-out: AK-based Prestwick Library Screening Results, P. aeruginosa (fold increase in extracellular AK activity)), 17.1; in assay [6] (planktonic, cutoff for positive 3-fold increase, read-out: AK-based Prestwick Library Screening Results, E. cloacae (fold increase in extracellular AK activity)) it was 1.5. Further, the fold induction at 50 µM in assay [7] (planktonic, cutoff for positive 3-fold increase, read-out: AK-based Prestwick Library Screening Results, E. coli (fold increase in extracellular AK activity)) worked out at 7.5.

As for `Cc1cccc(C)c1NC(=O)C(C)N` (centres unmarked) [Tocainide hydrochloride], the fold induction at 50 µM in assay [1] (setting [8]) amounted to 1; in assay [2] (setting [9]), 1.1; in assay [3] (setting [10]), 1.1; in assay [4] (setting [11]) it was 1.6; in assay [5] (setting [12]), 1.1; in assay [6] (setting [13]) it was 1.4. Further, the fold induction at 50 µM in assay [7] (setting [14]) was 1.2.

Regarding `Cc1c(C)c2c(c(C)c1O)CC[C@@](C)(CCC[C@H](C)CCC[C@H](C)CCCC(C)C)O2` [Tocopherol (R,S)], the “AK-based Prestwick Library Screening Results: E. faecium (increase in extracellular AK activity)” value in assay [1] (planktonic E. faecium, 384-well, cutoff for positive-scoring molecules 3-fold increase) amounted to 0.9. Further, in assay [2] (planktonic S. aureus, 384-well, cutoff for positive-scoring molecules 3-fold increase), the “AK-based Prestwick Library Screening Results: S. aureus (increase in extracellular AK activity)” value was found to be 0.4. In addition, the “AK-based Prestwick Library Screening Results: K. pneumoniae (increase in extracellular AK activity)” value in assay [3] (planktonic K. pneumoniae, 384-well, cutoff for positive-scoring molecules 3-fold increase) turned out to be 0.4. In addition, the “AK-based Prestwick Library Screening Results: A. baumannii (increase in extracellular AK activity)” value in assay [4] (planktonic A. baumannii, 384-well, cutoff for positive-scoring molecules 3-fold increase) worked out at 0.4. Also, the “AK-based Prestwick Library Screening Results: P. aeruginosa (increase in extracellular AK activity)” value in assay [5] (planktonic P. aeruginosa, 384-well, cutoff for positive-scoring molecules 3-fold increase) was determined as 0.4. Also, the “AK-based Prestwick Library Screening Results: E. cloacae (increase in extracellular AK activity)” value in assay [6] (planktonic E. cloacae, 384-well, cutoff for positive-scoring molecules 3-fold increase) is 0.4. Moreover, the “AK-based Prestwick Library Screening Results: E. coli (increase in extracellular AK activity)” value in assay [7] (planktonic E. coli, 384-well, cutoff for positive-scoring molecules 3-fold increase) came out at 0.6.

Regarding `CCOC(=O)NNc1nncc2ccccc12` [Todralazine hydrochloride], the fold induction at 50 µM in assay [1] (planktonic E. faecium, 384-well, cutoff for positive-scoring molecules 3-fold increase, read-out: AK-based Prestwick Library Screening Results: E. faecium (increase in extracellular AK activity)) worked out at 0.8; in assay [2] (planktonic S. aureus, 384-well, cutoff for positive-scoring molecules 3-fold increase, read-out: AK-based Prestwick Library Screening Results: S. aureus (increase in extracellular AK activity)), 1.3; in assay [3] (planktonic K. pneumoniae, 384-well, cutoff for positive-scoring molecules 3-fold increase, read-out: AK-based Prestwick Library Screening Results: K. pneumoniae (increase in extracellular AK activity)) it was 1; in assay [4] (planktonic A. baumannii, 384-well, cutoff for positive-scoring molecules 3-fold increase, read-out: AK-based Prestwick Library Screening Results: A. baumannii (increase in extracellular AK activity)) it was 1.1; in assay [5] (planktonic P. aeruginosa, 384-well, cutoff for positive-scoring molecules 3-fold increase, read-out: AK-based Prestwick Library Screening Results: P. aeruginosa (increase in extracellular AK activity)) it was 1.1; in assay [6] (planktonic E. cloacae, 384-well, cutoff for positive-scoring molecules 3-fold increase, read-out: AK-based Prestwick Library Screening Results: E. cloacae (increase in extracellular AK activity)), 1.7. Besides, in assay [7] (planktonic E. coli, 384-well, cutoff for positive-scoring molecules 3-fold increase, read-out: AK-based Prestwick Library Screening Results: E. coli (increase in extracellular AK activity)), the fold induction at 50 µM turned out to be 1.3.
